Results on 47 molecules are retold here after BindingDB's records for doi:10.7270/Q2377749 (Nmmlsc, 2010).

As a reminder, the EC50 is the concentration giving half of the maximal effect. A low value points to a more potent agent.

The assay deals with Ras-related C3 botulinum toxin substrate 1 (Mus musculus, UniProt P63001). The experiment in a line: inhibition of wildtype Rac1 nucleotide loading – biochemical, multiplex bead flow cytometry, dose response (AID 1340). (A flow cytometer gives signals particle by particle.)
Regarding `O=C(O)c1ccccc1Sc1ncnc2sc3c(c12)CCC3`, the EC50 was determined as 1220 nM.
The result for `COc1cc(CN=Nc2nnc3c(n2)[nH]c2ccccc23)ccc1O` reads 634 nM.
To `CN1C(=O)N(C)c2ccc(C=O)c3cccc1c23` [1,3-dimethyl-2-oxidanylidene-perimidine-6-carbaldehyde] belongs 20800 nM; to `CCCc1nc2c(=O)n(C)c(=O)nc-2n(C)n1` [1,6-dimethyl-3-propyl-pyrimido[5,4-e][1,2,4]triazine-5,7-dione], 623 nM; to `O=C(O)c1cn(CCOc2ccccc2)c2ccccc12` [1-(2-phenoxyethyl)-3-indolecarboxylic acid], 5440 nM.
To `O=C(C#Cc1ccccc1)c1cccc([N+](=O)[O-])c1` [1-(3-nitrophenyl)-3-phenyl-2-propyn-1-one] belongs 19200 nM; to `Cc1ccc(C)c(OCCn2cc(C(=O)O)c3ccccc32)c1` [1-[2-(2,5-dimethylphenoxy)ethyl]-3-indolecarboxylic acid], 802 nM; to `OC(CNCCc1ccc(Cl)cc1)COc1ccc2ccccc2c1` (configuration not stated) [1-[2-(4-chlorophenyl)ethylamino]-3-(2-naphthalenyloxy)-2-propanol], 7190 nM.
For the molecule `CC(=O)c1c(C)[nH]c(C(=O)N2CCc3ccccc3C2)c1C` [1-[5-(3,4-dihydro-1H-isoquinolin-2-ylcarbonyl)-2,4-dimethyl-1H-pyrrol-3-yl]ethanone], it took 5130 nM to reach a half-maximal effect (EC50).
Consider `O=C(NNC(=S)NCc1ccc(Cl)cc1)c1ccc(Br)o1` [1-[(5-bromanylfuran-2-yl)carbonylamino]-3-[(4-chlorophenyl)methyl]thiourea], for which the EC50 turned out to be 85.7 nM.
The result for `Cc1cc(C)c(C)c(C(=O)c2ccccc2C(=O)O)c1C` [2-(2,3,5,6-tetramethylbenzoyl)benzoic acid] reads 2240 nM; that for `Cc1cc(C(=O)Oc2ccccc2C(=O)O)c(C)o1` [2-(2,5-dimethyl-3-furoyl)oxybenzoic acid], 102 nM.
The result for `O=C(O)c1ccccc1OCc1ccccc1Br` [2-(2-bromobenzyl)oxybenzoic acid] reads 151 nM; that for `CC1(C)Cc2c(sc(NC(=S)NC(=O)c3ccccc3)c2C(=O)O)CO1` [2-(benzoylcarbamothioylamino)-5,5-dimethyl-4,7-dihydrothieno[2,3-c]pyran-3-carboxylic acid], 80.6 nM; that for `O=C(O)c1ccccc1NCCc1ccc(Cl)cc1` [2-[2-(4-chlorophenyl)ethylamino]benzoic acid], 1520 nM.
The result for `CC(C)C(NCc1c(Cl)cccc1Cl)C(=O)O` (configuration not stated) [2-[(2,6-dichlorobenzyl)amino]-3-methyl-butyric acid] reads 5800 nM; that for `O=C(O)c1ccccc1NCc1ccccc1Cl` [2-[(2-chlorobenzyl)amino]benzoic acid], 899 nM.
`Cc1cc(NC(=O)CSc2nc(O)c(C#N)c(-c3ccccc3)n2)no1` [2-[(5-cyano-4-oxidanylidene-6-phenyl-1H-pyrimidin-2-yl)sulfanyl]-N-(5-methyl-1,2-oxazol-3-yl)ethanamide] had an EC50 of 9540 nM.
The result for `N#Cc1c(-c2ccccc2)nc(SCC(=O)Nc2ccccc2)[nH]c1=O` [2-[(5-cyano-4-oxo-6-phenyl-1H-pyrimidin-2-yl)thio]-N-phenylacetamide] reads 3540 nM; that for `COc1ccc(-c2nnc(SCC(=O)c3cccs3)o2)cc1` [2-[[5-(4-methoxyphenyl)-1,3,4-oxadiazol-2-yl]sulfanyl]-1-thiophen-2-yl-ethanone], 6390 nM.
Molecule `COc1cc(C=NNC(=O)c2sc(N)nc2C)cc(OC)c1OC` [2-amino-4-methyl-N-[(3,4,5-trimethoxyphenyl)methylideneamino]-5-thiazolecarboxamide] registered an EC50 of 1670 nM.
To `Cc1cc(C(=O)Cn2nc(C(=O)O)c3ccccc3c2=O)c(C)n1-c1ccc(OC(F)F)cc1` [3-[2-[1-[4-(difluoromethoxy)phenyl]-2,5-dimethyl-3-pyrrolyl]-2-oxoethyl]-4-oxo-1-phthalazinecarboxylic acid] belongs 5900 nM; to `O=C(O)CCN1C(=O)/C(=C/c2ccc(-c3nc4ccccc4s3)o2)SC1=S` [3-[(5Z)-5-[[5-(1,3-benzothiazol-2-yl)furan-2-yl]methylidene]-4-oxo-2-sulfanylidene-1,3-thiazolidin-3-yl]propanoic acid], 976 nM.
`CCn1nc(C(=O)OCC(=O)c2cc(C)n(Cc3cccs3)c2C)c2ccccc2c1=O` [3-ethyl-4-keto-phthalazine-1-carboxylic acid [2-[2,5-dimethyl-1-(2-thenyl)pyrrol-3-yl]-2-keto-ethyl] ester]: the midpoint of the response, the EC50, lay at 892 nM.
`CCOC(=O)c1nc(Nc2ccc(C(C)=O)cc2)c2ccccc2n1` [4-(4-acetylanilino)-2-quinazolinecarboxylic acid ethyl ester] came in with an EC50 of 3400 nM.
The molecule `COc1ccc(C(=O)CC=Nc2ccc(S(=O)(=O)Nc3nc(C)cc(C)n3)cc2)cc1OC` [4-[3-(3,4-Dimethoxy-phenyl)-3-oxo-propenylamino]-N-(4,6-dimethyl-pyrimidin-2-yl)-benzenesulfonamide] showed an EC50 of 3120 nM.
The result for `CC(C)Oc1ccc(C=NNC(=O)c2ccc(N(Cc3ccccc3)S(C)(=O)=O)cc2)cc1` [4-[benzyl(mesyl)amino]-N-[(4-isopropoxybenzylidene)amino]benzamide] reads 5170 nM; that for `COc1ccccc1NCc1sc(C(=O)O)cc1C` [4-methyl-5-(o-anisidinomethyl)-2-thenoic acid], 16000 nM; that for `O=C(O)c1ccc(COc2ccccc2Cl)o1` [5-[(2-chloranylphenoxy)methyl]furan-2-carboxylic acid], 26300 nM.
The result for `COc1ccc(Cl)cc1NCc1sc(C(=O)O)cc1C` [5-[(5-chloro-2-methoxy-anilino)methyl]-4-methyl-2-thenoic acid] reads 1820 nM; that for `Cc1cccc(-n2nc(CC#N)c(C#N)c2N)c1` [5-amino-3-(cyanomethyl)-1-(3-methylphenyl)-4-pyrazolecarbonitrile], 28400 nM.
The result for `Cc1sc2nc3ccc(NCc4ccco4)nn3c(=O)c2c1C` [7-(2-furanylmethylamino)-2,3-dimethyl-4-thieno[1,2]pyrimido[4,5-b]pyridazinone] reads 9210 nM; that for `CCN(CC)c1ccc2cc(-c3nc(-c4ccc(OC)cc4)cs3)c(=O)oc2c1` [7-(diethylamino)-3-[4-(4-methoxyphenyl)-1,3-thiazol-2-yl]chromen-2-one], 372 nM; that for `O=C1/C(=C\c2cccnc2)Sc2ccccc21` [(2E)-2-(3-pyridinylmethylidene)-1-benzothiophen-3-one], 93100 nM.
The molecule `Cc1cc(C)cc(N=Cc2[nH]c3ccc(Br)c(Cl)c3c2O)c1` [(2Z)-5-bromo-4-chloro-2-[(3,5-dimethylanilino)methylidene]-1H-indol-3-one] showed an EC50 of 3030 nM.
The result for `CCOc1ccc(/C=C2\SC(N3CCc4ccccc4C3)=NC2=O)cc1` [(5Z)-2-(3,4-dihydro-1H-isoquinolin-2-yl)-5-(4-ethoxybenzylidene)-2-thiazolin-4-one] reads 4020 nM; that for `O=C(O)/C=C/c1cn(Cc2ccccc2)nc1-c1cccs1` [(E)-3-(1-benzyl-3-thiophen-2-ylpyrazol-4-yl)prop-2-enoic acid], 2280 nM.
For the molecule `O=C(O)/C=C/c1cn(Cc2ccccc2)nc1-c1ccc(Cl)cc1` [(E)-3-[1-benzyl-3-(4-chlorophenyl)pyrazol-4-yl]acrylic acid], the EC50 came to 164 nM.
The result for `O=C(Nc1nc(-c2ccc(S(=O)(=O)N3CCCC3)cc2)cs1)c1ccco1` [MLS000049286] reads 1760 nM; that for `O=C(COc1ncnc2cc([N+](=O)[O-])ccc12)NCCc1ccc(Cl)cc1` [MLS000335629], 5410 nM; that for `O=C(NC1CCCCC1)c1cc([N+](=O)[O-])n[nH]1` [MLS000559279], 55300 nM.
As to `Cc1ccccc1C(=O)Nc1ccc2c(C#N)c3nc4ccccc4nc3n2c1` [MLS000591720], a half-maximal response (EC50) required 291 nM.
The result for `N=C(N)NS(=O)(=O)c1ccc(NC(=S)NC(=O)c2ccc3c(c2)OCO3)cc1` [MLS000621545] reads 2800 nM; that for `COCCn1c(=S)[nH]c2cc(C(=O)N3CCc4ccccc4C3)ccc2c1=O` [SMR000310652], 605 nM.
On to `COc1cc(SC#N)ccc1N=Cc1c(C)[nH]n(-c2ccc(C)c(C)c2)c1=O` [[4-[[(Z)-[1-(3,4-dimethylphenyl)-3-methyl-5-oxidanylidene-pyrazol-4-ylidene]methyl]amino]-3-methoxy-phenyl] thiocyanate], for which the EC50 came to 966 nM.
The result for `NC(=S)NNC1=c2cc(F)ccc2=NC1=O` [[(5-fluoro-2-oxoindol-3-yl)amino]thiourea] reads 3460 nM; that for `CCOC(=O)CN(C(=O)CSc1nnc2c(n1)[nH]c1ccc(OC)cc12)c1ccc(F)cc1` [ethyl 2-[(4-fluorophenyl)-[2-[(8-methoxy-5H-[1,2,4]triazino[5,6-b]indol-3-yl)sulfanyl]ethanoyl]amino]ethanoate], 923 nM.
